Measured values published in ChEMBL document CHEMBL3507680, “University of Dundee, Gates Library screen for HepG2 cell viability”.

Test: Human HepG2 cell viability assay in 384 well format
Type: toxicity, cell-based
Parameters: dose 125 nL, time 70.5 hour; cytotoxicity at 70.5 h: concentration not given beside the values
Settings: HepG2 cells, read-out: Inhibition

SMILES	cytotoxicity at 70.5 h [%]
NCC(c1cccnc1)N1CCOCC1 (centres undefined)	-4.26
COCC1CN(C(=O)CNC(C)=O)Cc2ncnn2C1 (centres undefined)	-8.02
CC(=O)N1[C@H](Cn2cncn2)C[C@@H]2CN(S(C)(=O)=O)CC[C@@H]21	-8.6
Cn1cc(CN2CC[C@H]3C[C@H](c4nc(C5CC5)cs4)O[C@@H]3C2)cn1	-12.5
Cn1ccnc1CN1CCC2(COCCN(Cc3ccsc3)C2)C1 (centres undefined)	-11.4
Cc1ccc2c(c1)CCC21CCN(C(=O)CO)CC1	-8.48
COCC1CN(Cc2ccc(C)o2)Cc2ncn(CC3CC3)c21 (centres undefined)	-8.02
CCN1C(=O)C2(CCOCC2)c2cc(NC(=O)c3ccco3)ccc21	-8.84
O=C(C1=CC2(CCNCC2)c2ccccc21)N1CCCC1	-14.7
O=C(c1cnccn1)N1CCN2C[C@H](OCc3ccccn3)C[C@H]2C1	-10.5
O=C(C1CCOCC1)N1CCc2ncnc(-c3ccc(F)cc3)c2CC1	-11.3
O=C(C1CCC1)N1CCC2(COCc3cnc(N4CCOCC4)nc32)C1 (centres undefined)	8.28
CN(C)CC(=O)N1Cc2nc(C(=O)NCc3ccncc3)oc2C1	-14.7
COCCNC(=O)[C@@H]1CC[C@@H]2[C@@H](CCN2Cc2cnn(C)c2)O1	-18.7
O=C(C1=CCCC1)N1CCO[C@H]2[C@@H](OCC3CC3)CC[C@@H]21	-17.4
Cc1ccoc1C(=O)N1CC[C@H]2O[C@@H](C)C[C@H]2C1	-10.2
Cc1noc(C)c1CN1CC[C@H]2OCC[C@@H](C(=O)N3CCCO3)[C@@H]2C1	-14.6
CC(C)N(C)C(=O)C1=NOC2(CCN(C(=O)c3ccccn3)C2)C1 (centres undefined)	-9.35
CC(=O)N1CCC2(CC1)CC(Oc1ccccc1)CO2 (centres undefined)	-7.56
CC(C)N1CCOCC2(CN(Cc3ccco3)CCO2)C1 (centres undefined)	-8.16
O=C(c1ccsc1)N1CCc2c(COCc3ccncc3)cncc2C1	-9.93
CN(C)C(=O)CN1CCC2(CC1)CN(S(C)(=O)=O)Cc1ccccc1O2	-4.65
Cc1csc(C(Cc2cccs2)NCc2cc3c(cc2C)OCO3)n1 (centres undefined)	17.6

SMILES	cytotoxicity at 70.5 h [%]
CSCC[C@H]1CN2CCC[C@H]2CN1Cc1coc2ccc(C)cc2c1=O	1.94
CCn1ccc(C(=O)N2CCCC2c2nnc(-c3scnc3C)o2)n1 (centres undefined)	-6.79
O=C(CCOc1ccccc1F)NC1CCCN(c2ccccn2)C1 (centres undefined)	-5.44
COc1cc(OC)cc(C(=O)N2CCOCC2c2[nH]ncc2C)c1 (centres undefined)	18
CCn1cc(C(=O)N(C)[C@@H]2CC[C@@H](N3CCCC3)[C@@H]2O)c(C)n1	-5.26
Cc1n[nH]c(C)c1CCC(=O)N1CCC(O)(CN2CCN(C)CC2)C1 (centres undefined)	-6.92
CN(C1CCCN(c2ccccn2)C1)S(C)(=O)=O (centres undefined)	-3.73
Cc1ccn(CCC(=O)N2CCCC2c2nnc(-c3scnc3C)o2)n1 (centres undefined)	11.6
Cc1ncsc1-c1nnc(C2CCCN2C(=O)Cn2cccn2)o1 (centres undefined)	3.13
Cc1ccc(CN2CCCC(c3cnccn3)C2)s1 (centres undefined)	-1.38
COc1ccc2c(c1)C(=O)NC1(CC2)CCN(Cc2ccncc2)C1 (centres undefined)	-0.942
O=C(Cc1ccccc1)NCc1ncc(-c2ccccc2C(=O)O)cn1	-4.73
Cc1cc(N2CCCC2(C)c2nc(C)cc(C(=O)N(C)C)n2)ncn1 (centres undefined)	-2.78
Cc1ccc(CN2CCC(c3cnccn3)CC2)s1	-3.44
CC(C)N1CCCC1c1cc(C(F)(F)F)[nH]n1 (centres undefined)	0.712
CN(C)c1cc(C2CCCN(Cc3cnn(C)c3)C2)ccn1 (centres undefined)	-0.665
Fc1ccc(-c2cnc(C3CCNCC3)cn2)cc1	-2.13
Cc1n[nH]c(C)c1CCC(=O)N1CCC(O)(CN2CCOCC2)C1 (centres undefined)	15.2
CN(C)[C@@H]1CN(C(=O)c2cc3ccc(F)cc3[nH]2)C[C@H]1O	-2.24
Cn1nccc1CCC(=O)NC1CCCN(c2ccccn2)C1 (centres undefined)	-1.31
CC(C)n1nnc(CC(=O)NCC2(c3cccc(F)c3)CCCC2)n1	15.1
CC(C)N1CC[C@@](C)(O)[C@H](n2ccc(=O)[nH]c2=O)C1	-7.14
Cn1c(=O)[nH]c(=O)c2c1nc1n2CC(c2ccc(Br)cc2)O1 (centres undefined)	-3.88

SMILES	cytotoxicity at 70.5 h [%]
O=C(NCc1ccco1)c1cc[n+]([O-])cc1	-4.13
O=C(O)C1CN(c2cncc(Cc3ccccc3F)n2)C1	-6.79
CC(=O)Nc1cc(CCC2CCN(C(=O)c3ccccn3)CC2)ccn1	-14.2
CC(=O)N(C)Cc1cncc(C2CCCN2C2CCOCC2)n1 (centres undefined)	-9.86
CS(=O)(=O)N1CCCC(Cc2ccnc(Nc3ccccn3)c2)C1 (centres undefined)	-6.97
CS(=O)(=O)N1CCC(Cc2cnc(Br)cn2)C1 (centres undefined)	45.3
Cc1ccc2[nH]c(C3CCN(CC(N)=O)CC3)nc2c1	9.74
CNC(=O)c1sc2ccccc2c1C1CCN(c2cc(C)nc(C)n2)C1 (centres undefined)	18.1
Cc1nnc(C2CCN(c3ccccc3)CC2)o1	-9.47
Oc1cc(C2CCCCN2C2CCCC2)nc(-c2cccnc2)n1 (centres undefined)	-7.77
Cc1cc(C2CCCN(S(=O)(=O)c3cn(C)cn3)C2)ccn1 (centres undefined)	-5.97
CN(C)C(c1ccccn1)[C@H]1CC[C@H](CNC(=O)CC2CCCC2)CC1 (some centres undefined)	-7.26
O=C(O)c1ccccc1-n1cnc(CN2CCc3ccccc3C2)c1	27.7
Cc1ccc2c(CC(=O)N3C[C@@H](O)[C@H](N(C)C)C3)coc2c1	-5.65
CN(C)Cc1ccccc1Cn1cncc1-c1cnn(C)c1	-3.97
CC(=O)N1CCC(c2cncc(N3CCCCCC3)n2)CC1	-17.2
Cn1ccc(CN2CC(Cc3nccc4cc[nH]c34)C2)n1	-4.79
CS(=O)(=O)N1CCC(c2cncc(Cl)n2)CC1	27.2
CC(C)CC(NC(=O)c1ccco1)c1nc2cccnc2n1C (centres undefined)	-1.92
CC[C@@H](Cn1ncc2ccccc2c1=O)NC(=O)c1cnccn1	-4.08
CC(C(=O)N(Cc1ccccc1)CC(F)(F)F)S(C)(=O)=O (centres undefined)	-5.47
Cc1cnn(-c2ccc(S(N)(=O)=O)cc2F)c1	20
O=C(Cc1cccnc1)NC1COc2ccccc2C1=O (centres undefined)	-14.7

SMILES	cytotoxicity at 70.5 h [%]
COCCN(CCOC)C(=O)c1sc(C)nc1C	-6.51
CC(C)N(C)CC(=O)N1CCCC(n2ccnc2)C1 (centres undefined)	1.97
CCc1ccccc1CNC(=O)CNCC(F)(F)F	-2.89
Cc1ccc2c(c1C)OCC2NCc1ccc(C#N)cc1 (centres undefined)	16.8
FC(F)(F)Cn1ccnc1CNCCn1cccn1	-6.92
CC(SCCNS(=O)(=O)c1cnn(C)c1)c1cccc(F)c1 (centres undefined)	-5.51
c1ccc(-c2nccc(N3CCc4c(ncn4C4CC4)C3)n2)cc1	-17.8
COC(=O)CC(NC(=O)c1cccc(N2CCCC2=O)c1)c1cccs1 (centres undefined)	4.95
Cn1cnnc1S(=O)(=O)Cc1cc(Cl)c2c(c1)OCO2	7.74
Cc1csc(CNC(=O)CCCc2cccs2)n1	-1.29
FC(F)(F)CN1CCC(CNc2nc3ccccc3o2)C1 (centres undefined)	1.85
CC(C)NC(=O)c1cnc(Sc2nccn2C)c(Cl)c1	9.84
CCn1ncc(CN2CCCC(n3c(=O)oc4ccccc43)C2)c1C (centres undefined)	-3.68
Cn1cc([C@@H]2CN(S(C)(=O)=O)C[C@H]2N)c2ccncc21	19
CN1CCCCC1c1cncc(Cl)n1 (centres undefined)	-0.934
CC1CCN(c2cncc(CCC3CCCN3)n2)CC1 (centres undefined)	-8.58
Cc1cc(N2CCN(Cc3ccnn3C)CC2)cc(C2CCCN2)n1 (centres undefined)	13
CCN(CC)C(=O)CN1CCc2c(nc(C3CCNCC3)nc2NC)C1	-8.61
COc1ccc(-c2cc(C3CCNCC3)nc(C)n2)cc1	-6.57
CCN1CCCc2cc(-c3cncn3C(C)CN3CCOCC3)ccc21 (centres undefined)	-4.04
CCC(CN1CCOCC1)n1cncc1-c1ccc2c(c1)CCCN2C (centres undefined)	-6.78
Cc1ccc(-c2cc(C3CCNCC3)nc(C)n2)cc1	-6.7
Cc1nccn1CCC1CCNCC1	-4.48

SMILES	cytotoxicity at 70.5 h [%]
CN(C)Cc1cc(=O)n2c(n1)CN(C(=O)Cc1ccsc1)CCC2	-12.5
CN1CCN(C(=O)Cc2cccc(F)c2)Cc2cccnc21	-5.94
Cc1ccc2c(n1)N(C)CCN(C(=O)NC1CC1)C2	25.2
CCN(C)c1ncnc2c1CCN(C(=O)N1CCCC1)CC2	-12.4
CC(C)CN1CCC2(C=C(C(=O)N3CCCC3)c3ccccc32)CC1	-15.8
O=C([C@@H]1CC[C@@H]2[C@@H](CCN2Cc2cccc(F)c2)O1)N1CCCCO1	5.95
CCS(=O)(=O)N1CCOC2(CCCN(c3ccc(C)nn3)C2)C1 (centres undefined)	-11.8
CN1CCN(C(=O)NC2CC2)Cc2cccnc21	0.459
Cc1noc(C)c1CN1CC[C@H]2OCC[C@@H](C(=O)NCC3CC3)[C@@H]2C1	-3.12
CC(C)n1cnc2c1C(C(=O)NCCC#N)N(Cc1ccccc1)CC2 (centres undefined)	-16.7
CCOCC1CN(C(=O)c2ccncc2)Cc2nn(C)cc21 (centres undefined)	-18
CN(C)c1ncc2c(n1)C1(CCN(CC3CC3)C1)COC2 (centres undefined)	-8.15
Cc1ccc(CN2CC3(CCN(C(=O)c4cscn4)C3)C2)s1	-7.12
CS(=O)(=O)N1CCOCC2(CN(Cc3ccco3)CCO2)C1 (centres undefined)	-3.82
COCCN1CCC2(CC1)CC(COC)N(c1ncccn1)C2 (centres undefined)	-9.91
Fc1ccccc1CN1C[C@@H](OCc2ccncc2)[C@H]2OCCC[C@H]21	-12.8
CN1CCN(Cc2cn3c(n2)CN(C(=O)N2CCOCC2)CC3)CC1	-3.86
CN(C)[C@@H]1CCN(c2ncccn2)[C@H]1Cc1ccncc1	-5.48
c1cnc(NCc2noc3c2CN(CCN2CCCC2)CC3)nc1	-7.61
CN(C)c1ncc(CN2CCC(O)(c3ccccc3F)CC2)cn1	-2.07
CC(C)N1CCCC1c1cc(CO)[nH]n1 (centres undefined)	-4.38
Cc1cccc(Nc2cc(C)nc(C3CCN(C(C)C)C3)n2)n1 (centres undefined)	15.7
